Reference: article PMC12731536, “Sc(III) Complexes of Pyclen Derivative Ligands as Probes for Hypoxia: Synthesis, Chemical Characterization, ^44Sc‐Radiolabeling, and Preclinical Assessment” (Chemistry (Weinheim an Der Bergstrasse, Germany), 2025)

What was measured:
[1] = Stability constants of Sc(III) complexes, out‐of‐cell (batch) samples, 45Sc NMR; type: physicochemical; conditions: I = 1.00 M NaCl; for pSc: pSc = ‐log[Sc(III)]free, cSc(III) = 1x10^−8 M, clig = 1x10^−7 M; for log K ScL: stability constant of the Sc(III) complex, T = 25 °C
Description: The stability constant of the complex of PC2AM^nBu ligand formed with Sc(III) ion was studied using “out‐of‐cell” (batch) samples using ^45Sc NMR spectroscopy in strongly acidic media. Typical ^45Sc NMR spectra are shown in Figure 5 along with the corresponding ^1H NMR spectra of the aromatic region of the ligand.
Using the ^45Sc NMR signal intensities of free Sc^3+ measured in the equilibrated samples, the stability constant, K ScL, was calculated by fitting the areas with the PSEQUAD program ^[ [47] ^] (Figure 6). The best fitting was observed by considering the simplest model including only [Sc(PC2AM^nBu)]^+ species; that is, the formation of protonated [Sc(HPC2AM^nBu)]^2+ cannot be confirmed.
The stability constant of the [Sc(PCTA)] complex was determined in a similar way (Figure S13). The results were summarized in Table 2, including the data of [Sc(DO3AM‐NI)], determined in our previous study.^[ [33] ^]
Among the complexes shown in Table 2, the [Sc(DO3AM‐NI)] complex has the highest stability, but its stability constant is lower than the corresponding values of [Sc(DOTA)]^− (log K ScL = 30.79) and [Sc(DTPA)]^2− (log K ScL = 27.43). ^[ [49] ^] As evidenced for DO3AM‐mono(amide) the replacement of acetate side chains with amide groups results in a decrease in stability constant (and conditional stability); therefore, we can see an order of magnitude difference between the stabilities of [Sc(PCTA)] and [Sc(PC2AM^nBu)]^+. Although these K ScL constants and pSc values are somewhat lower than those of the complexes formed with traditional DOTA and DTPA ligands, these chelators remain remarkably good Sc(III)‐binding chelators. […] Therefore, following the proposal of M. Meyer and colleagues,^[ [48] ^] […] For the AL/M values, 1 corresponds to 90%, 2 corresponds to 99%, 3 corresponds to 99.9% etc. for complex formation. […] The AL/M data of the [Sc(PC2AM^nBu)]^+ complex only exceeds that of the [Sc(DO3AM‐NI)] complex in the pH < 3.0 range, which can be advantageous for labeling at low pH. Furthermore, based on the data in Table 2, it can be concluded that for these systems there is no discrepancy between the trends observed in the pSc and AL/M values.
The stability constant of [Sc(PC2AM^nBu)]^+ and [Sc(PCTA)] complexes was studied using “out‐of‐cell” (batch) samples using ^45Sc and ^1H NMR spectroscopy. The NMR spectra were obtained using a Bruker Avance II DRX spectrometer (9.4 T), equipped with Bruker Variable Temperature Unit, Bruker Cooling Unit, and a 5 mm BB inverse z gradient probe. For the investigation of [Sc(PC2AMnBu)]⁺, twelve samples (cSc(III) = 3.00 mM, cligand = 3.06 mM, in the pH range of –log[H^+] = 0.1–1.3; I = 1.0 M NaCl/HCl) were prepared in NMR tubes and kept at 25 °C for one week to reach equilibrium. During this period, ^1H and ^45Sc NMR measurements were performed daily to monitor changes in signal intensities. No significant changes were detected after one week, even in the most acidic sample. The intensities of the free Sc(III) signals were normalized using a standard 50 mM ScCl3 solution containing 1 M HCl (20% D2O). For the determination of the stability of the [Sc(PCTA)] complex, eleven “batch” samples (cSc(III) = 4.00 mM, cligand = 4.08 mM), in the pH range of –log[H^+] = 0.1–1.25, were prepared. The evaluation of the measured data was performed using the PSEQUAD program.^[ [47] ^] Samples were prepared in H2O, with 10% D2O added for deuterium lock. The actual resonance frequencies for ^1H, ^13C, ^19F, and ^45Sc are indicated in the text and figure captions. The chemical shifts of ^1H and ^13C were calibrated using an external TMS standard, while ^19F was referenced to CCl3F. The ^45Sc NMR shift was calibrated to 0 ppm using a 5 mM solution of ScCl3 in 0.1 M HCl.

[2] = Acid‐assisted dissociation (decomplexation) of Sc(III) complexes, UV spectroscopy; type: physicochemical
Text: The inertness of metal complexes is a basic requirement in all relevant modalities of medical imaging. Complexes of macrocyclic ligands are often more inert compared to open‐chain analogs. In order to assess the behavior of our complexes, the decomplexation of [Sc(PC2AM^nBu)]^+ and [Sc(PCTA)] was studied in a strongly acidic medium (cH + = 1.6 ‐ 2.6 M HClO4) by using UV spectroscopy. […] The primary Abs. versus time curves have been fitted by monoexponential function returning kobs (s^−1) values (Figures S22 and S23).
The plots of the rate constants as a function of acid concentration yielded linear relationships for both complexes (k obs = k 0 + k 1[H^+]). The slopes of these lines correspond to the rate coefficients characteristic for acid‐assisted dissociation (k 1), whereas the intercepts characterize the acid‐independent part, often referred to as a rate of spontaneous dissociation. […] The rate coefficients obtained during the fitting are summarized in Table 3, along with the half‐lives calculated from the rate coefficients by using 1 M acid concentration (t ½ = ln 2 / k obs).
Kinetic studies of the dissociation of the [Sc(PC2AMnBu)]^+ and [Sc(PCTA)] complexes were carried out by examining the dependence of the dissociation rates on acid concentration. Spectrophotometric measurements were conducted on a JASCO V‐760 spectrophotometer at λ = 280 nm. The concentration of the complex in the sample was 0.30 mM, and HClO4 was applied in concentrations ranging from 1.6 to 2.6 M. The evaluation of the measured data was performed with Scientist software ^[ [62] ^] to determine the k 0 (spontaneous) and k 1 (acid‐assisted) reaction rates.

[3] = dissociation of the Sc(III) complex, 1.6‐2.6 M HClO4, 25 °C, I = 2.6 M

| SMILES | pSc ([1]; pH = 7.4) | log K ScL [1] | t 1/2 of dissociation (1 M H^+) ([2]; calculated from rate coefficients at 1 M acid concentration, 25 °C) [days] | AL/M (relative affinity) ([1]; [Sc(III)]total = 10 nM, [L]tot = 100 nM, pH = 7.4) | k 0 (spontaneous dissociation) [2, 3] | k 1 (acid‐assisted dissociation) [2, 3] |
| --- | --- | --- | --- | --- | --- | --- |
| CCCCNC(=O)CN1CCN(CC(=O)[O-])Cc2cccc(n2)CN(CC(=O)[O-])CC1.[Sc+3] [[Sc(PC2AM^nBu)]^+] | 19.32 | 19.53(4) | 22 | – | – | – |
| O=C(O)CN1CCN(CC(=O)O)Cc2cccc(n2)CN(CC(=O)O)CC1 [PCTA, reference compound] | 21.28 | 22.41(9) | – | 7.14 | (4.21 ± 0.81) x 10^−6 s^−1 | (2.11 ± 0.38) x 10^−6 M^−1s^−1 |
